Assays:
adult female L. cuprina = type: in vivo; conditions: for RF (Mal R): ratio of the LD50 of Woodside 5.2 with the LD50 of LS2 / RF (Dz/para R): ratio of the LD50 of Llandillo 103 with the LD50 of LS2: L. cuprina, NS = not significantly different from unity; for LD50 LS2 (OP Susceptible), with 95% confidence limits: strain LS2, topical in dioctylphthalate; for LD50 LS2 (OP Susceptible), with 95% confidence limits / LD50 Llandillo 103 (Dz/para Resistant), with 95% confidence limits / LD50 Woodside 5.2 (Mal Resistant), with 95% confidence limits: mortality at 24 hours; for LD50 Llandillo 103 (Dz/para Resistant), with 95% confidence limits: strain Llandillo 103, topical; for LD50 Woodside 5.2 (Mal Resistant), with 95% confidence limits: strain Woodside 5.2, topical
Text: (§1) The following organophosphorus compounds were used: diazinon (O,O-diethyl O-2-isopropyl-6-methylpyrimidin-4-yl phosphorothioate, 91%, Mallinckrodt), parathion-methyl (O,O-dimethyl O-4-nitrophenyl phosphorothioate, 97.0%, Bayer), parathion (O,O-diethyl O-4-nitrophenyl phosphorothioate, 99%, Pestanal grade, Riedel-de-Haën), fenthion (O,O-dimethyl O-[3-methyl-4-(methylthio)phenyl]phosphorothioate, 98.8%, Bayer), fenthion-ethyl (O,O-diethyl O-[3-methyl-4-(methylthio)phenyl] phosphorothioate, a gift from Dr. G. Levot), dichlorvos (2,2-dichlorovinyl dimethyl phosphate, 99%, Chem Service), diethyl-dichlorvos (2,2-dichlorovinyl diethyl phosphate, a gift from Dr. J. Desmarchelier), di-isopropyl-dichlorvos (2,2-dichlorovinyl di-isopropyl phosphate, a gift from Dr. J. Desmarchelier), malathion (S-1,2-bis(ethoxycarbonyl)ethyl O,O-dimethyl phosphorodithioate, technical grade, Nufarm), isopropyl malathion (S-1,2-bis(ethoxycarbonyl)ethyl O,O-di-isopropyl phosphorodithioate, a gift from Dr. J. Desmarchelier).
(§2) The toxicity of OPs in adult female L. cuprina was determined 3 or 4 days post-eclosion by application of OPs to the scutellum in 0.7 μl dioctylphthalate (Busvine, J. R., Bell, J. D. and Guneidy, A. M., Bulletin of Entomological Research 54: 589, 1963;; Townsend, M. G. and Busvine, J. R., Entomology Experimental and Applied 12: 243, 1969). Each OP was applied to at least 20 flies at each of at least 5 different concentrations, spanning the dose causing 50% mortality (LD50). Control groups were treated with solvent but no OP. Mortality was determined 24 hours later. Data were fitted to the probit curve using the Probit Or LOgit (POLO-PC) computer program (LeOra Software, 1987).

M. domestica = conditions: cited from earlier work; for Resistance factor of M. domestica (in parentheses), Dz/para resistance type / Resistance factor of M. domestica (in parentheses), malathion resistance type: Bell and Busvine 1967, Townsend and Busvine 1969
[1] = test system: whole fly homogenates of L. cuprina strains; test: Chlorfenvinphos hydrolysis by whole fly homogenates; type: biochemical
Description: Enzyme samples were diluted in 0.1M imidazole-HCl buffer pH 7.0 (“imidazole buffer”) to a final volume of 50 μl. Reactions were started by the addition 0.5 μl of (^14C-ethyl)-chlorfenvinphos (CVP, 306.5 MBq/mmole, Internationale Isotope Munchen) from a 7.5 mM stock solution in ethanol. The reaction was incubated at 30° C. and stopped by the addition of 300 μl dichloromethane and 150 μl of water followed by vigorous vortex mixing. The reactions were centrifuged to separate phases and 150 μl of the upper, aqueous phase was taken for scintillation counting to determine the amount of ^14C-diethylphosphate produced by hydrolysis of CVP. Incubations with boiled enzyme were also performed to control for non-enzymic hydrolysis of CVP.
Whole fly homogenates of malathion resistant (strains RM-8, 60NE 1.1, 4.2, Beverly 6.2, Hampton Hill 6.1, Hampton Hill 6.2, Woodside 5.2, Rop Rmal 1, M22.2 6.3, M27.1 4.1), diazinon resistant (Gunning 107, Inverell 22, Q4, RM2.6, Llandillo 103, Sunbury 5.2) and susceptible (LBB 101, Llandillo 104, LS2) strains of L. cuprina were tested for esterase-mediated hydrolysis of CVP, a general OP (ie not a malathion-type OP). All 10 malathion resistant strains had greater CVP hydrolytic activities (1.5–3.0 pmol/min/mg) than the 3 susceptible strains (0.5–1.0 pmol/min/mg, but less activity than the 6 diazinon resistant strains (8.2–30.0 pmol/min/mg).

[2] = test system: adult L. cuprina, Woodside 5.2 strain (Mal Resistant); type: in vivo, Lucilia cuprina; conditions: Woodside 5.2
Text: as §1, §2
LD50s of 10 OPs were determined for the Woodside 5.2 strain (homozygous for a malathion resistance allele of LcαE7) and the Llandillo 103 strain (homozygous for a parathion/diazinon resistance allele of LcαE7). LD50s were also determined for the OP susceptible LS2 strain in order to calculate resistance factors (Table 8).

Compound: CC(C)OP(=O)(OC=C(Cl)Cl)OC(C)C [Isopropyl Dichlorvos, 2,2-dichlorovinyl di-isopropyl phosphate]
- RF (Mal R): ratio of the LD50 of Woodside 5.2 with the LD50 of LS2 (adult female L. cuprina): 3
- LD50 LS2 (OP Susceptible), with 95% confidence limits (adult female L. cuprina): 3500 (2200–4800), ng/fly
- LD50 Llandillo 103 (Dz/para Resistant), with 95% confidence limits (adult female L. cuprina): 4600 (3400–5900) ng/fly
- LD50 Woodside 5.2 (Mal Resistant), with 95% confidence limits (adult female L. cuprina): 10200 (8800–12000) ng/fly

Compound: CCOC(=O)CC(SP(=S)(OC)OC)C(=O)OCC (centres unmarked) [Malathion, S-1,2-bis(ethoxycarbonyl)ethyl O,O-dimethyl phosphorodithioate]
- RF (Mal R): ratio of the LD50 of Woodside 5.2 with the LD50 of LS2 (adult female L. cuprina): > 130
- fold greater doses survived by flies with malathion resistance alleles of αE7 (adult female L. cuprina; in vivo): more than 100 fold
- LD50 LS2 (OP Susceptible), with 95% confidence limits (adult female L. cuprina): 550 (480–610), ng/fly
- LD50 Llandillo 103 (Dz/para Resistant), with 95% confidence limits (adult female L. cuprina): 490 (360–600) ng/fly
- LD50 Woodside 5.2 (Mal Resistant), with 95% confidence limits (adult female L. cuprina): 4 ng/fly
- Resistance factor of M. domestica (in parentheses), Dz/para resistance type (M. domestica): 2
- Resistance factor of M. domestica (in parentheses), malathion resistance type (M. domestica): 157
- resistance to malathion of malathion resistant M. domestica strains (M. domestica; literature): > 100 fold

Compound: CCOC(=O)CC(SP(=S)(OC(C)C)OC(C)C)C(=O)OCC (centres unmarked) [Isopropyl Malathion, S-1,2-bis(ethoxycarbonyl)ethyl O,O-di-isopropyl phosphorodithioate]
- RF (Mal R): ratio of the LD50 of Woodside 5.2 with the LD50 of LS2 (adult female L. cuprina): 1.8
- LD50 LS2 (OP Susceptible), with 95% confidence limits (adult female L. cuprina): 3600 (2700–4900), ng/fly
- LD50 Llandillo 103 (Dz/para Resistant), with 95% confidence limits (adult female L. cuprina): 4900 (3700–6200), ng/fly
- LD50 Woodside 5.2 (Mal Resistant), with 95% confidence limits (adult female L. cuprina): 6400 (5900–7100), ng/fly
- Resistance factor of M. domestica (in parentheses), malathion resistance type (M. domestica): 4

Compound: CCOP(=S)(OCC)Oc1cc(C)nc(C(C)C)n1 [Diazinon, O,O-diethyl O-2-isopropyl-6-methylpyrimidin-4-yl phosphorothioate]
- RF (Dz/para R): ratio of the LD50 of Llandillo 103 with the LD50 of LS2 (adult female L. cuprina): 10
- RF (Mal R): ratio of the LD50 of Woodside 5.2 with the LD50 of LS2 (adult female L. cuprina): 5
- LD50 LS2 (OP Susceptible), with 95% confidence limits (adult female L. cuprina): 57 (40–79), ng/fly
- LD50 Llandillo 103 (Dz/para Resistant), with 95% confidence limits (adult female L. cuprina): 550 (490–630), ng/fly
- LD50 Woodside 5.2 (Mal Resistant), with 95% confidence limits (adult female L. cuprina): 270 (240–300), ng/fly
- Resistance factor of M. domestica (in parentheses), Dz/para resistance type (M. domestica): 20
- Resistance factor of M. domestica (in parentheses), malathion resistance type (M. domestica): 2

Compound: CCOP(=O)(OCC)O/C(=C\Cl)c1ccc(Cl)cc1Cl [CVP, chlorfenvinphos]
- CVP hydrolytic activity ([1]; whole fly homogenates of 3 susceptible strains): 0.5 to 1.0 pmol/min/mg
- CVP hydrolytic activity ([1]; whole fly homogenates of 6 diazinon resistant strains): 8.2 to 30.0 pmol/min/mg
- CVP hydrolytic activity ([1]; whole fly homogenates of 10 malathion resistant strains): 1.5 to 3.0 pmol/min/mg

Compound: COP(=O)(OC)OC=C(Cl)Cl [Dichlorvos, 2,2-dichlorovinyl dimethyl phosphate]
- RF (Dz/para R): ratio of the LD50 of Llandillo 103 with the LD50 of LS2 (adult female L. cuprina): 4
- RF (Mal R): ratio of the LD50 of Woodside 5.2 with the LD50 of LS2 (adult female L. cuprina): 7
- LD50 LS2 (OP Susceptible), with 95% confidence limits (adult female L. cuprina): 41 (35–51), ng/fly
- LD50 Llandillo 103 (Dz/para Resistant), with 95% confidence limits (adult female L. cuprina): 150 (95–190), ng/fly
- LD50 Woodside 5.2 (Mal Resistant), with 95% confidence limits (adult female L. cuprina): 270 (210–340) ng/fly
- resistance factor towards dimethyl OP vs its diethyl analogue [2]: about two- to five-fold greater resistance factors
- Resistance factor of M. domestica (in parentheses), Dz/para resistance type (M. domestica): 3
- Resistance factor of M. domestica (in parentheses), malathion resistance type (M. domestica): 6
